Entries after “also recorded” stand apart in the source; their conditions may differ. Read-outs that look alike come from different tables or passages of the source.
What was measured:
PBMCs = assay: Treatment of PBMCs from healthy donors with USP10-targeting inhibitors; type: cell-based, human; settings: Homo sapiens
Source text: (§1) Nomo-1, P31-FUJ, and NB4 were obtained from Dr. Gary Gilliland. MV4, 11 cells were obtained from Dr. Anthony Letai. Hel, K562, THP, U937, TF-1 and K052 cells were purchased from the American Type Culture Collection (ATCC) (Manassas, Va., USA). […] Cell lines were submitted for cell line authentication and were authenticated within 6 months of manuscript preparation through cell line short tandem repeat (STR) profiling (DDC Medical, Fairfield, Ohio and Molecular Diagnostics Laboratory, Dana Farber Cancer Institute). […] PBMCs were generously provided by Dr. Steven Treon and Dr. Guang Yang.
(§2) The CellTiter-Glo® assay (Promega, Madison, Wis.) was used for proliferation studies and carried out according to manufacturer instructions. Cell viability is reported as percentage of control (untreated) cells, and error bars represent the standard error of the mean for each data point.

[1] = test system: AML primagraft (D835Y+, FLT3-ITD+) cells; assay: Treatment of mutant FLT3-expressing AML primagraft cells ex vivo; type: cell-based, human; settings: Homo sapiens, read-out: IC50 (+/−S.D.) AML primagraft (D835Y+, FLT3-ITD+)
Experimental: All animal studies were performed according to protocols approved by the Dana-Farber Cancer Institute's Institutional Animal Care and Use Committee. […] Mice were sacrificed on day 21 of treatment. Bone marrow was flushed from mouse femurs, and spleens and livers were dissected and preserved first in formalin, followed 24 hours later by preservation in 70% ethanol. […] All AML primagraft samples used in the studies described herein were obtained through the Public Repository of Xenografts (proxe.org).
as §2

[2] = target: T1, human USP10 (residues 376-798) (Homo sapiens, UniProt Q14694); assay: In vitro USP10 activity assay (Ubiquitin-AMC); type: biochemical; settings: ubiquitin-AMC as substrate; purified enzyme; read-out: USP10 biochemical IC50
T1 construct: A construct of human USP10 covering residues 376-798 in the pET28a vector; His-tag (cleaved yes); made in house; host or cells: E. coli BL21 (DE3)
T1 sequence (Q14694 376-798): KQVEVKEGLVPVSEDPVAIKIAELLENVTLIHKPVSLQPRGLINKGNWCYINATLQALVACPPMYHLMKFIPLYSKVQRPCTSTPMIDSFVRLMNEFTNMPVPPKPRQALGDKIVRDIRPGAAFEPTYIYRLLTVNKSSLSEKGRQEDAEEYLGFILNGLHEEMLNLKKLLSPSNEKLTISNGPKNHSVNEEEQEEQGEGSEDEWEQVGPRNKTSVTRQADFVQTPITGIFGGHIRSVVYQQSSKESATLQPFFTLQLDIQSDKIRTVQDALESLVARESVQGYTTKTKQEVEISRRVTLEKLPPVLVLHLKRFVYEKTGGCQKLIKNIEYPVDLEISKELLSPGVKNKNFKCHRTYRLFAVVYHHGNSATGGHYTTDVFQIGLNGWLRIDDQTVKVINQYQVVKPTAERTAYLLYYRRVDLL
Experimental: Protein expression and purification. A construct of human USP10 covering residues 376-798 in the pET28a vector was over-expressed in E. coli BL21 (DE3) in TB medium in the presence of […] of kanamycin. Cells were grown at 37° C. to an OD of 0.8, cooled to 17° C., induced with 500 μM isopropyl-1-thio-D-galactopyranoside, incubated overnight at 17° C., collected by centrifugation, and stored at −80° C. Cell pellets were sonicated in buffer A (50 mM HEPES (pH 7.5), 300 mM NaCl, 10% glycerol, 10 mM Imidazole, and 3 mM BME) and the resulting lysate was centrifuged at 30,000×g for 30 min. Ni-NTA beads (Qiagen) were mixed with lysate supernatant for 30 min and washed with buffer A. Beads were transferred to an FPLC-compatible column and the bound protein was washed with 15% buffer B (50 mM HEPES (pH 7.5), 300 mM NaCl, 10% glycerol, 300 mM Imidazole, and 3 mM BME) and eluted with 100% buffer B. Thrombin was added to the eluted protein and incubated at 4° C. overnight. The sample was then passed through a HiPrep 26/10 desalting column (GE Healthcare) pre-equilibrated with buffer A without imidazole, and the eluted protein was subjected to a second Ni-NTA step to remove His-tag and Thrombin. The eluent was concentrated and passed through a Superdex® 200 10/300GL column (GE Healthcare) in a buffer containing 20 mM HEPES (pH 7.5), 150 mM NaCl, and 1 mM DTT. Fractions were pooled, concentrated to 20 mg/ml, and frozen at −80° C.
In vitro USP10 activity assay. Recombinant USP10, residues 376-798, was tested for its activity in a Ubiquitin-AMC assay in presence or absence of inhibitors. For this assay, 10 nM USP10 were pre-incubated with different concentrations of inhibitors or DMSO as a control in 50 mM HEPES pH7.6, 0.5 mM EDTA, 11 uM ovalbumin, and 5 mM DTT. The reaction was incubated for 6 hours at room temperature prior to the addition of 2 uM Ubiquitin-AMC (Boston Biochem) substrate. The initial rate of the reaction was measured by collecting fluorescence data at one minute intervals over 30-minute period using a CLARIOstar® fluorescence plate reader at excitation and emission wavelength of 345 and 445 nm, respectively. The calculated initial rate values were plotted against inhibitor concentrations to determine IC50 values.

MOLM14 cells = assay: Immunoblot of FLT3, Beclin-1, AKT, ERK1/ERK2 in MOLM14 cells; type: cell-based, human; settings: approximately 23 hours of treatment
Source text: (§3) The following antibodies were purchased from Cell Signaling Technology (Danvers, Mass.): total AKT (rabbit, #9272) and total p44/42 MAPK (Erk1/2) (3A7) (mouse, #9107) were used at 1:1000 dilution. Anti-GAPDH (D16H-11) XP (R) (rabbit mAb, #5174) was used at 1:1000 dilution. Beclin-1 (rabbit, #3738) was used at 1:1000. USP10 (D7A5) (rabbit, #8501) was used at 1:1000 dilution. P53 (rabbit, #9282) was used at 1:1000 dilution. β-tubulin (rabbit, #2146s) was used 1:1000.
(§4) FLT3/Flk-2 (C-20) (sc-479) and Ub (P4D1) (mouse, sc-8017) were purchased from Santa Cruz Biotechnology, Inc. (Dallas, Tex.) and used at 1:1000 dilution for immunoblotting. Anti-pTyr (mouse, clone 4G10) was purchased from Upstate Biotechnology (Lake Placid, N.Y.) and was used at 1:1000 dilution. Anti-HAUSP/USP7 antibody (rabbit, ab4080) and anti-ubiquitin antibody (rabbit, ab7780) were purchased from Abcam (Cambridge, Mass.) and used at 1:1000 dilution.
(§5) Protein lysate preparation, immunoblotting, and immunoprecipitation were carried out as previously described in Weisberg et al. (2002) Cancer Cell 1:433-443.

USP10 [3] = assay: USP10 target engagement in cells, labeling with HA-Ub-VS; type: cell-based; settings: lysates from live treated cells
Experimental: Cells were harvested, washed with PBS, and lysed in 1% NP-40, 10% glycerol, 2% sodium orthovanadate, and HALT protease inhibitor cocktail (ThermoFisher). Lysate was diluted to 50 ug in 30 uL lysis buffer with 1% DTT and incubated on ice for 15 minutes. 0.25 ug HA-Ub-VS was added, and the sample was gently rocked at room temperature for 30 minutes, then denatured with LDS sample buffer.

Ba/F3-FLT3-ITD cells [4] = assay: Proliferation of Ba/F3-FLT3-ITD cells; type: cell-based, murine; settings: concentration up to 20 μM; approximately 72 hours
Source text: as §1, §2

Ba/F3-FLT3-ITD cells [5] = assay: Immunoblot of FLT3 / Beclin-1 in Ba/F3-FLT3-ITD cells; type: cell-based, murine; settings: concentration up to 20 μM
Source text: as §3, §4, §5

[6] = test system: primary tumor cells from FLT3-ITD positive AML patients and FLT3 mutant primagrafts; assay: Survival of primary AML patient cells and FLT3 mutant primagrafts; type: cell-based, human; settings: approximately 72 hrs of treatment
Source text: as §2, with “The trypan blue exclusion assay has been previously described in Weisberg et al. (2002) Cancer Cell 1:433-443 and was used for quantification of cells prior to seeding for CellTiter-Glo® assays. The” for “The”
Mononuclear cells were isolated from samples from AML patients identified as harboring mutant FLT3. Cells were tested in liquid culture (DMEM supplemented with 20% FBS) in the presence of different concentrations of single and combined agents. All blood and bone marrow samples from AML patients were obtained under approval of the Dana Farber Cancer Institute Institutional Review Board.

USP10 [7] = target: USP10 (Homo sapiens, UniProt Q14694); assay: MALDI TOF DUB assay with diubiquitin substrate; type: biochemical; settings: diubiquitin (K11) as substrate
Chain of USP10 (Homo sapiens, UniProt Q14694) (Q14694 whole entry): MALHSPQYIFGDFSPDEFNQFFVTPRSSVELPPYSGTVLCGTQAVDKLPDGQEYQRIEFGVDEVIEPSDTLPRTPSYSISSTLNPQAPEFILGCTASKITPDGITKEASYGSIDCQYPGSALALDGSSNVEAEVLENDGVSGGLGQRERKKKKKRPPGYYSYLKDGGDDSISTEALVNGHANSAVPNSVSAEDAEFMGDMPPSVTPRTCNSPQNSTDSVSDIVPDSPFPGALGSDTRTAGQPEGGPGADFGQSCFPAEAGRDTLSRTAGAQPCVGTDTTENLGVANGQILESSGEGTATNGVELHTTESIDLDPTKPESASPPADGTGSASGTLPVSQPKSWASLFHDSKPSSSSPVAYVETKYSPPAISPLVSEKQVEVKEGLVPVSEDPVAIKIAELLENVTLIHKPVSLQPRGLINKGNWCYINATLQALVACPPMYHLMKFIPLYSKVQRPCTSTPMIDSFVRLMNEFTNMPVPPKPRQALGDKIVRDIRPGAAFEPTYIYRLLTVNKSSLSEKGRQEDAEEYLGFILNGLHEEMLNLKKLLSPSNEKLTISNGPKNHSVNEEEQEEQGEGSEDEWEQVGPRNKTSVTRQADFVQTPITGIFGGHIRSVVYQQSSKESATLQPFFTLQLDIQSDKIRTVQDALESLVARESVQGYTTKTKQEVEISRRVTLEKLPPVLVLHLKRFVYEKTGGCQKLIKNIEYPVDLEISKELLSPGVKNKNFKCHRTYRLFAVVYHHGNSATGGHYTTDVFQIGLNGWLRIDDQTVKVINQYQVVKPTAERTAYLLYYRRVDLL
Experimental: Thirty-one human DUBs were freshly diluted in the reaction buffer (40 mM Tris-HCl, pH 7.6, 5 mM DTT, 0.005% BSA) at different concentrations (see Table 10). […] The enzymes were pre-incubated with the compounds for 30 min at room temperature at 10 μM final concentration. 0.48 μl of di-ubiquitin topoisomers were added to the reaction mixture to initiate the reaction. The reaction was sealed and incubated for 30 min at room temperature and stopped by adding TFA to a final concentration of 2% (v/v).
Mass spectrometry data was acquired on an UltrafleXtreme MALDI-TOF mass spectrometer (Bruker Daltonics) with Compass 1.3 control and processing software. The sample carrier was taught before each analysis to optimize and centre laser shooting. […] Samples were analysed in automatic mode (AutoXecute, Bruker Daltonics). […] An amount of 3,500 shots were summed up in “random walk” and with “large” smartbeam laser focus. Spectra were automatically calibrated on the ^15N-Ub m/z and processed using smoothing (Savitzky-Golay algorithm) and baseline subtraction (‘TopHat’) for reproducible peak annotation on non-resolved isotope distributions: one cycle, 0.2 m/z for the width. For area calculation, the complete isotopic distribution was taken into account. […]

[8] = test system: FLT3-ITD+, D835Y+ AML primagraft; assay: Primagraft study in NSG mice; type: in vivo; settings: 15 mg/kg
Experimental: All animal studies were performed according to protocols approved by the Dana-Farber Cancer Institute's Institutional Animal Care and Use Committee. […]. Mice were sacrificed on day 21 of treatment. Bone marrow was flushed from mouse femurs, and spleens and livers were dissected and preserved first in formalin, followed 24 hours later by preservation in 70% ethanol. […]; All AML primagraft samples used in the studies described herein were obtained through the Public Repository of Xenografts (proxe.org).

[9] = test system: Ba/F3-FLT3-ITD-luc+ cells; assay: Non-invasive in vivo bioluminescence study
[10] = 24 hr assay, PBMC#1, read-out: IC50 (+/−S.D.) PBMC#1
[11] = 24 hr assay, PBMC#2, read-out: IC50 (+/−S.D.) PBMC#2

Compound	IC50 (PBMCs; [10]) [µM]	IC50 (PBMCs; [11]) [µM]	IC50 ([1]; 24 hr assay) [µM]	IC50 [2] [µM]	Expression of AKT and ERK1/ERK2 downstream of FLT3 (MOLM14 cells)	Inhibitor concentration blocking USP10 labeling by HA-Ub-VS (USP10 [3])	Cell viability (Ba/F3-FLT3-ITD cells [4])	FLT3 levels (Ba/F3-FLT3-ITD cells [5])	Survival of patient samples and primagrafts [6]	IC50 (PBMCs; 72 hr assay, PBMC#1, read-out: IC50 (+/−S.D.) PBMC#1) [µM]	IC50 (PBMCs; 72 hr assay, PBMC#2, read-out: IC50 (+/−S.D.) PBMC#2) [µM]	IC50 ([1]; 24 h) [µM]	IC50 ([1]; 72 h) [µM]	IC50 (USP10 [7]) [µM]	Tolerability ([8]; 21-day treatment period)	Average weight loss ([8]; 21 days, same for vehicle-treated, none below 15% weight loss) [g]	Reduction in luciferase-positive signal in bone marrow versus vehicle ([9]; 50 mg/kg IP BID, 4 days)	Lower percentage of FLT3 expression in bone marrow versus vehicle ([9]; 50 mg/kg IP BID, 4 days, flow cytometry)	Vital organ toxicity ([9]; mouse studies)	Body weight versus vehicle ([9]; treated for up to 11 days)
CS(=O)(=O)c1ccc(NC(=O)c2cc(C#N)c(Sc3c(Cl)cncc3Cl)s2)cc1 [1247825-37-1, reference compound]	14.9	16.6	2.5	36	unchanged	low micromolar range														
O=C(CCc1ccccc1)N1CCC(O)(Cn2cnc3cc(Cl)ccc3c2=O)CC1 [Compound 2]							little impact on cell viability	did not lead to reduced FLT3 levels	little to no effect											
CC(=O)c1cc([N+](=O)[O-])c(Sc2ccc(F)cc2F)s1 [P22077]	10.6	7.8		15						6.9	4.4	6.9	2.6	6	generally well-tolerated; also recorded: generally well tolerated	2 to 3	approximately 2 fold	approximately 2 fold	no evidence of vital organ toxicity	no significant difference in weight
